The supplement of paper PMC5844555

Assays:
Test in all cases: 3' UTR reporter interaction score (median-centred robust z-score of log2 firefly/Renilla activity); higher = less repression of the 3' UTR reporter
Conditions in all cases: HEK293T; 48 h
BRCA2 = system: BRCA2
In short: (§1)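 Using DharmaFECT Duo, HEK293T cells (10,000/well, 96-well plates) were co-transfected with 2.5 pmol miRNA mimic, 100 ng firefly luc2P reporter containing the gene's 3' UTR and 20 ng Renilla pRL-TK control, and dual-luciferase activity was read 48 h later. The interaction score is the log firefly/Renilla ratio as a per-plate robust z-score (median, median absolute deviation), median-centred per miRNA, averaged over at least two independent screens; lower, more negative values indicate interaction.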

EZH2 = system: EZH2
In short: as §1

FBXW7 = system: FBXW7
In short: as §1

HRAS = system: HRAS
In short: as §1

MYB = system: MYB
In short: as §1

MYCN = system: MYCN
In short: as §1

MYC = system: MYC
In short: as §1

MYT1L = system: MYT1L
In short: as §1

NOTCH1 = system: NOTCH1
In short: as §1

PHF6 = system: PHF6
In short: as §1

PHOX2B = system: PHOX2B
In short: as §1

RB1 = system: RB1
In short: as §1

TP53 = system: TP53
In short: as §1

ZEB2 = system: ZEB2
In short: as §1

Sequence | 3' UTR reporter interaction score (BRCA2) | 3' UTR reporter interaction score (EZH2) | 3' UTR reporter interaction score (FBXW7) | 3' UTR reporter interaction score (HRAS) | 3' UTR reporter interaction score (MYB) | 3' UTR reporter interaction score (MYCN) | 3' UTR reporter interaction score (MYC) | 3' UTR reporter interaction score (MYT1L) | 3' UTR reporter interaction score (NOTCH1) | 3' UTR reporter interaction score (PHF6) | 3' UTR reporter interaction score (PHOX2B) | 3' UTR reporter interaction score (RB1) | 3' UTR reporter interaction score (TP53) | 3' UTR reporter interaction score (ZEB2)
AUCAUAGAGGAAAAUCCAUGUU | -0.0049 | 0.791 | -0.575 | -0.664 | 0.366 | 0.0452 | -0.229 | -0.0506 | 1.28 | -0.0407 | 0.462 | 0.00936 | 0.636 | -1.1
AUCAUGAUGGGCUCCUCGGUGU | -0.103 | -0.332 | -2.53 | 0.527 | 0.47 | -1.14 | -1.04 | 1.53 | -2.44 | 0.0291 | -0.574 | 0.226 | 0.202 | 0.672
AUCCCUUGCAGGGGCUGUUGGGU | -0.445 | 0.197 | -1.6 | -0.0656 | 0.681 | 0.104 | 0.108 | 0.613 | 0.359 | -0.0289 | -1.62 | -0.201 | -0.855 | 1.78
AUCCUUGCUAUCUGGGUGCUA | -0.448 | -0.755 | 0.895 | -3.26 | 0.799 | 1.2 | 0.118 | 0.363 | 0.113 | -1.61 | -0.723 | -2.46 | 0.763 | -0.105
AUCGCUGCGGUUGCGAGCGCUGU | -2.3 | -1.15 | 0.301 | -1.73 | 1.13 | 0.0647 | 0.0173 | 1.61 | -0.324 | 2.14 | 2.38 | -0.265 | -0.536 | 0.885
AUCGGGAAUGUCGUGUCCGCC | 0.225 | -0.604 | 0.361 | 0.0629 | -0.74 | -0.166 | -1.57 | -0.0689 | -0.49 | 1.55 | 0.773 | -0.355 | 0.313 | 0.211
AUCGUGCAUCCCUUUAGAGUGUU | 0.348 | 0.461 | 0.0524 | -0.945 | 0.132 | 0.792 | -0.211 | 0.0982 | -0.525 | 1.97 | -0.0114 | 0.943 | -0.928 | -2.08
AUCGUGCAUCCUUUUAGAGUGU | -0.461 | 0.0977 | -0.0607 | -1.03 | 0.368 | 1.14 | -0.764 | -0.261 | -0.741 | 2.24 | 0.0627 | 0.712 | -0.802 | -2.58
AUGACCUAUGAAUUGACAGAC | -0.0675 | 0.321 | -0.658 | 0.425 | 1.61 | 1.35 | 1.39 | 0.231 | -0.0227 | -2.93 | -1.53 | -3 | 0.0613 | -6.08
